Laboratory results published in patent US12139481B2, “Compositions comprising macrocycle derivatives incorporating bridged macrocycles and methods of producing and using same” (Southwestern Oklahoma State University, priority 2015, dated 2024).
Like-named read-outs stand apart in the source and are kept apart here.

Experiments:
C. glabrata ATCC 90030 = assay: Antifungal broth dilution assay against C. glabrata (modified CLSI); assay type: cell-based, Candida glabrata
Procedure: (§1) General Experimental Procedures. All organisms were obtained from the American Type Culture Collection (Manassas, VA) and include the fungi Candida albicans ATCC 90028, C. glabrata ATCC 90030, C. krusei ATCC 6258, and Cryptococcus neoformans ATCC 90113, and the bacteria Staphylococcus aureus ATCC 29213 and methicillin-resistant S. aureus ATCC 33591 (MRS). All organisms were tested using modified versions of the CLSI (formerly NCCLS) methods. For all organisms, optical density was used to monitor growth (NCCLS, Reference Method for Broth Dilution Antifungal Susceptibility Testing of Yeasts; Approved Standard M27-A2. National Committee on Clinical Laboratory Standards, 2002 22 (15); and NCCLS, Methods for Dilution Antimicrobial Susceptibility Tests for Bacteria that Grow Aerobically; Approved Standard, Seventh Edition M7-A7. National Committee on Clinical Laboratory Standards, 2006. 26(2)).
(§2) Samples (dissolved in DMSO) were serially-diluted in 20% DMSO/saline and transferred (10 μL) in duplicate to 96 well flat bottom microplates. Inocula were prepared by correcting the OD630 of microbe suspensions in incubation broth [RPMI 1640/0.2% dextrose/0.03% glutamine/MOPS @ pH 6.0 (Cellgro) for Candida spp., Sabouraud Dextrose for C. neoformans, and cation-adjusted Mueller-Hinton (Difco) @ pH 7.3 for Staphylococcus spp. to afford an assay volume of […] and final target inocula of: Candida spp. and C. neoformans: 1.5×10^3, and Staphylococcus spp.: 5.0×10^5 CFU/ml. Final sample test concentrations were 1/100th the DMSO stock concentration. […] All organisms were read at either 530 nm using the Biotek Powerwave XS plate reader (Bio-Tek Instruments, Vermont) prior to and after incubation: Candida spp. at 35° C. for 46-50 h, Staphylococcus spp. at 35° C. for 16-20 h, and C. neoformans at 35° C. for 70-74 h. IC50s (concentrations that afford 50% inhibition relative to controls) were calculated using XLfit 4.2 software (IDBS, Alameda, CA) using fit model 201. The MIC is defined as the lowest test concentration that allows no detectable growth. Minimum fungicidal or bactericidal concentrations were determined by removing 5 μl from each clear (or blue) well, transferring to fresh media, and incubating as previously mentioned. The MFC/MBC is defined as the lowest test concentration that kills the organism (allows no growth).
(§3) Primary Analysis. Samples were tested in duplicate at one test concentration (50 μg/mL), and percent inhibitions were calculated relative to blank and growth controls. Samples showing 50% inhibition in at least one test organism were selected for dose response (Secondary) studies.
(§4) Secondary Analysis. Extracts from the Primary Assay, and first-run pure compounds and column fractions were tested in duplicate at 3 test concentrations (5-fold dilutions). Samples dissolved to 20 mg/mL in DMSO were tested at 200, 40, and 8 μg/mL. Samples dissolved to 2 mg/mL in DMSO were tested at 20, 4, and 0.8 μg/mL.

[1] = tested on: Cryptococcus neoformans ATCC 90113; assay: Antimicrobial microdilution assay against Cryptococcus neoformans (modified CLSI/NCCLS, optical density); assay type: cell-based; settings: for X more potent than Amphotericin B: C. neoformans, ratio of molar IC50 to Amphotericin B; for C. neoformans IC50 / IC50: in vitro, C. neoformans ATCC 90113; for IC50: read-out: C. neoformans IC50 (mol/L)
In short: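 Fungicidal endpoint taken by subculturing 5 μL from each clear well onto agar, MFC being the lowest concentration with no regrowth. Duplicate wells of serially diluted compound (20% DMSO/saline) in RPMI pH 6.0, read at 630 nm pre- and post-incubation, under modified CLSI methods. IC50 means 50% growth inhibition against controls.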

[2] = tested on: Staphylococcus aureus ATCC 29213; assay: Antibacterial broth dilution assay against S. aureus (modified CLSI); assay type: cell-based; settings: for S. aureus IC50 / IC50: in vitro; for IC50: converted with molecular weight; for X more potent than ciprofloxacen: molar IC50 ratio versus ciprofloxacen
Procedure: as §1, §2, §3, §4

[3] = tested on: L. donovani promastigotes; assay: Antileishmanial Alamar Blue assay on promastigotes; assay type: cell-based, Leishmania donovani; settings: for X more potent than Pentamidine: L. donovani, ratio of molar IC50 to Pentamidine; for L. donovani IC50 / IC50: promastigotes, 48 hours, Alamar Blue; for IC50: read-out: L. donavani IC50
In short: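 Alamar Blue fluorescence (544/590 nm) quantified growth after 48 hours at 26° C of compound-treated promastigotes. Parasites were seeded at 5×10^5/mL in RPMI 1640 plus 10% FCS; drug range 50-3.1 μg/mL, and IC50 derived by plotting percent growth against test concentration.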

[4] = tested on: Plasmodium falciparum D6 clone (Sierra Leon, chloroquine-sensitive); assay: In vitro antimalarial assay, chloroquine-sensitive D6 clone; assay type: cell-based; settings: for X more potent than chloroquine: molar IC50 ratio versus chloroquine
Procedure: (§5) The compounds were assayed for in vitro antimalarial activity against the W2 clone and D6 clone of the pathogenic Plasmodium falciparum. The strains of P. falciparum were obtained from the Division of Experimental Therapeutics, Walter Reed Army Institute of Research, Washington D.C. Strains of Sierra Leon D6 and Indochina W2 are chloroquine-sensitive and chloroquine-resistant, respectively. The parasite was grown in type A human RBCs and, two strains subcultured daily with fresh medium and blood cells. On the day of the assay, a suspension of infected blood cells (2% parasitemia and 2% hematocrit) was prepared using type A human red blood cells. Assays were performed by standard 96-well flat-bottomed microplate methods and done in duplicate at different concentrations. IC50 values were obtained from the dose curves. Artemisinin and chloroquine were included in each assay as the drug controls, and DMSO was used as vehicle control. The whole protocol was developed based on the published method of Makler. The cytotoxicity assays were also performed in parallel against the Vero cells, and the selectivity index was measured. A selectivity index of >9 was considered to indicate a lead for further development of antimalarial drug.

[5] = tested on: Plasmodium falciparum W2 clone (Indochina, chloroquine-resistant); assay: In vitro antimalarial assay, chloroquine-resistant W2 clone; assay type: cell-based; settings: for X more potent than chloroquine: molar IC50 ratio versus chloroquine
Procedure: as §5

[6] = D6 clone, converted with molecular weight, read-out: P. falciparum D6 IC50
[7] = W2 clone, converted with molecular weight, read-out: P. falciparum W2 IC50

Compound | X more potent than Amphotericin B [1] | C. neoformans IC50 [1] | IC50 [1] | S. aureus IC50 [2] | IC50 [2] | X more potent than ciprofloxacen [2] | X more potent than Pentamidine [3] | L. donovani IC50 [3] | IC50 [3] | P. falciparum D6 IC50 ([4]; D6 clone) | IC50 [4, 6] | X more potent than chloroquine ([4]; D6 clone) | P. falciparum W2 IC50 ([5]; W2 clone) | IC50 [5, 7] | X more potent than chloroquine ([5]; W2 clone) | other results
CC(=O)[O-].F[P-](F)(F)(F)(F)F.[Co+2].c1ccc(CN2CCN3CCCN(CC2)CCN(Cc2ccccc2)CC3)cc1 [AW038, [Co(Bn2PBCyclen)(C2H3O2)]PF6] | 0.04 | 4.370 mg/L | 6.67 µM | 5.080 mg/L | 7.75 µM | 0.04 | 0.17 | 20.66 mg/L | 31.5 µM | – | – | – | – | – | – | C. glabrata IC50 (C. glabrata ATCC 90030; in vitro): 5.800 mg/L; IC50 (C. glabrata ATCC 90030; in vitro, converted with molecular weight): 8.85 µM; X more potent than Amphotericin B (C. glabrata ATCC 90030; molar IC50 ratio versus amphotericin B): 0.16
CC(=O)[O-].F[P-](F)(F)(F)(F)F.O.[Ni+2].c1ccc(CN2CCCNCCN(Cc3ccccc3)CCCNCC2)cc1 [BME06, [Ni(Bn2Cyclam)(OAc)]PF6•H2O] | 0.01 | 17.990 mg/L | 27.2 µM | – | – | – | 0.13 | 26.25 mg/L | 39.7 µM | 0.7495 mg/L | 1.13 µM | 0.03 | 1.7132 mg/L | 2.59 µM | 0.26 | –
CCN(CC)CCCC(C)Nc1ccnc2cc(Cl)ccc12 (stereo not shown) [CQ] | – | – | – | – | – | – | – | – | – | – | – | 1.00 | – | – | 1.00 | IC50 ([4]; Plasmodium falciparum, D6, read-out: P. falciparum D6 IC50 (mol/L)): 0.0366 µM; IC50 ([4]; Plasmodium falciparum, D6, read-out: P. falciparum D6 IC50 (μg/mL)): 0.0117 µg/mL; IC50 ([5]; Plasmodium falciparum, W2, read-out: P. falciparum W2 IC50 (mol/L)): 0.678 µM; IC50 ([5]; Plasmodium falciparum, W2, read-out: P. falciparum W2 IC50 (μg/mL)): 0.217 µg/mL
CC(=O)[O-].CC(=O)[O-].[Cu+2].c1ccc(CN2CCCN3CCCN(CCCN(Cc4ccccc4)CC3)CC2)cc1 [DJD20, Cu(Bn2PBCyclam)(OAc)2] | 0.05 | 3.130 mg/L | 5.2 µM | 6.880 mg/L | 11.4 µM | 0.02 | 0.22 | 14.65 mg/L | 24.3 µM | – | – | – | – | – | – | –
Clc1ccc2c(N3CCCNCCCNCCNCCC3)ccnc2c1 [K-JDD-0011-P36] | – | – | – | – | – | – | – | – | – | 0.0203 mg/L | 0.054 µM | 0.68 | 0.5279 mg/L | 1.4 µM | 0.48 | –
Clc1ccc2c(N3CCNCCN(c4ccnc5cc(Cl)ccc45)CCNCC3)ccnc2c1.[Cl-].[Cl-].[Mn+2] [K-PAA2-0004-P8] | – | – | – | – | – | – | – | – | – | 0.0750 mg/L | 0.12 µM | 0.30 | 0.0875 mg/L | 0.141 µM | 4.82 | –
CN1CCN(c2ccnc3cc(Cl)ccc23)CCN(C)CCN(c2ccnc3cc(Cl)ccc23)CC1 [K-PAA-0012-P28] | – | – | – | – | – | – | – | – | – | 0.1169 mg/L | 0.223 µM | 0.16 | 0.1992 mg/L | 0.381 µM | 1.78 | –
Clc1ccc2c(N3CCNCCN(c4ccnc5cc(Cl)ccc45)CCNCC3)ccnc2c1.O.O.[Fe+3].[O-][Cl+3]([O-])([O-])[O-].[O-][Cl+3]([O-])([O-])[O-].[O-][Cl+3]([O-])([O-])[O-] [K-PAA-0016-P36, Fe-complex-4,10-bis(7-chloroquinoline)cyclen)Cl2] | 0.22 | 0.940 mg/L | 1.06 µM | – | – | – | – | – | – | 0.0196 mg/L | 0.0221 µM | 1.65 | 0.0336 mg/L | 0.0379 µM | 17.88 | times more potent than chloroquine ([5]; chloroquine-resistant P. falciparum (W2 strain)): ~18
Clc1cc(CN2CCN3CCN(CCN(Cc4ccc(CN5CCN6CCN(CC5)CCN(Cc5cc(Cl)nc(Cl)c5)CC6)cc4)CC3)CC2)cc(Cl)n1 [PW111A, p-dcp2-CB-cyclens] | 4.88 | 0.040 mg/L | 0.0488 µM | 5.530 mg/L | 6.75 µM | 0.04 | 0.34 | 12.89 mg/L | 15.7 µM | – | – | – | – | – | – | –
[Zn2(m-cyclam-homocyclen)(OAc)2][PF6]2 [AW052B] | 0.23 | 1.150 mg/L | 1.04 µM | 6.580 mg/L | 5.94 µM | 0.05 | 0.33 | 17.60 mg/L | 15.9 µM | – | – | – | – | – | – | –
m-CB-homocyclens HCl salt [OB65B] | 1.47 | 0.160 mg/L | 0.162 µM | – | – | – | 0.48 | 11.08 mg/L | 11.2 µM | 0.2921 mg/L | 0.295 µM | 0.12 | 0.3783 mg/L | 0.382 µM | 1.78 | –
p-CB-cyclens HCl salt [OB15B] | 0.34 | 0.610 mg/L | 0.699 µM | – | – | – | 0.22 | 20.94 mg/L | 24 µM | 0.5799 mg/L | 1.1 µM | 0.03 | 0.6558 mg/L | 1.25 µM | 0.54 | –
p-CB-homocyclens HCl salt [TA22C] | 0.71 | 0.310 mg/L | 0.334 µM | – | – | – | 0.30 | 16.31 mg/L | 17.6 µM | 0.2596 mg/L | 0.308 µM | 0.12 | 0.3189 mg/L | 0.379 µM | 1.79 | –
